Source: the supplement of paper PMC8253809

Key:
HGGX42 = H3.3 G34R paediatric high-grade glioma line; experiment: growth inhibition relative to DMSO (0) and positive control (1) (fraction); higher = more growth inhibition
Description: (§1)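 Paxalisib (GDC0084) x mirdametinib (PD0325901) dose matrix on pHGG cell lines and astrocyte controls, 7 days, adherent 384-well. CellTiter-Glo RLU was normalised (no log2) to fractional activity between DMSO (0) and the positive control (1). Each combination was tested in two plate orientations.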

HABS = astrocyte control; experiment: as above
Description: as §1

CC1(C)OCCn2c1nc1c(N3CCOCC3)nc(-c3cnc(N)nc3)nc12 [GDC0084] + O=C(NOC[C@H](O)CO)c1ccc(F)c(F)c1Nc1ccc(I)cc1F [PD0325901]
growth inhibition
Conditions	compound 1 concentration 0.009766 µM	compound 1 concentration 0.01953 µM	compound 1 concentration 0.03906 µM	compound 1 concentration 0.07812 µM	compound 1 concentration 0.15625 µM	compound 1 concentration 0.3125 µM	compound 1 concentration 0.625 µM	compound 1 concentration 1.25 µM	compound 1 concentration 5 µM	compound 1 concentration 20 µM
HABS, compound 2 concentration 0.03906 µM	-0.37	-0.333	-0.284	-0.211	-0.192	-0.0322	0.16	0.363	0.773	0.974
HABS, compound 2 concentration 0.07812 µM	-0.231	-0.228	-0.183	-0.184	-0.0583	0.0322	0.187	0.365	0.734	0.954
HABS, compound 2 concentration 0.15625 µM	-0.225	-0.157	-0.11	-0.0914	0.000284	0.0786	0.237	0.371	0.734	0.943
HABS, compound 2 concentration 0.3125 µM	-0.0761	-0.0499	-0.0388	0.00861	0.0797	0.184	0.292	0.419	0.718	0.923
HABS, compound 2 concentration 0.625 µM	0.163	0.146	0.187	0.252	0.293	0.374	0.474	0.574	0.798	0.946
HABS, compound 2 concentration 1.25 µM	0.291	0.301	0.34	0.347	0.406	0.457	0.538	0.624	0.807	0.966
HABS, compound 2 concentration 5 µM	0.677	0.695	0.698	0.722	0.793	0.854	0.895	0.922	0.982	0.999
HABS, compound 2 concentration 20 µM	0.792	0.82	0.846	0.876	0.911	0.94	0.968	0.986	0.999	1
HGGX42, compound 2 concentration 0.03906 µM	-0.12	-0.197	0.0384	0.0281	0.284	0.461	0.656	0.736	0.874	0.903
HGGX42, compound 2 concentration 0.07812 µM	-0.0889	-0.0669	-0.00719	0.153	0.248	0.404	0.631	0.729	0.855	0.919
HGGX42, compound 2 concentration 0.15625 µM	-0.145	-0.107	-0.0597	0.0866	0.181	0.411	0.625	0.714	0.835	0.915
HGGX42, compound 2 concentration 0.3125 µM	-0.136	0.0502	-0.0893	0.0398	0.184	0.318	0.582	0.644	0.788	0.89
HGGX42, compound 2 concentration 0.625 µM	-0.166	-0.0808	-0.0757	0.0763	0.176	0.471	0.532	0.677	0.822	0.896
HGGX42, compound 2 concentration 1.25 µM	-0.0698	-0.0338	-0.0377	0.08	0.227	0.394	0.576	0.727	0.866	0.908
HGGX42, compound 2 concentration 5 µM	0.307	0.337	0.354	0.431	0.481	0.564	0.688	0.774	0.907	0.95
HGGX42, compound 2 concentration 20 µM	0.486	0.554	0.507	0.615	0.653	0.772	0.853	0.913	0.975	0.985
